Data published in patent US9896474B2, “(3A,9B,10A,13A,14B,17A,20S,22E)-ergosta-5,7,22-trien-3-ol and methods of preparing and using the same” (priority 2014, dated 2018).
In brackets after ≈: the same amount, converted by molar mass. Several values for one entry are separate records, joined by “and”; a condition that tells them apart may be missing. Equal values may be shown once.

Experiments:
[1] = system: human hepatoma cells Hep-g2; test: MTT assay on human hepatoma cells Hep-g2; type: cell-based; conditions: HepG2, 48 hrs, OD 490 nm, read-out: 1050 value (cell viability curve)
Procedure: a. 250 mg of 3-(4,5-dimethylthiazol-2-yl)-2,5-diphenyltetrazolium bromide (MTT) was dissolved by 50 mL of phosphate buffered saline (PBS) having a concentration of 0.01 mol/L and PH=7.45 to yield a MTT solution having a final concentration of 5 mg/mL. The MTT solution was dispensed and protected against light at the temperature of −20° C. after filtration and sterilization.
b. A suspension of single cell line was prepared and inoculated into 96-well plate (cells were diluted to a concentration of 4×10^4/mL by the F-12K basic culture medium, 100 μL diluted cells were added to each well and cultivated at 37° C., 5% CO2 for 20 hrs, each group was provided with 4 parallel samples).
c. The culture medium was removed; and new culture mediums were prepared according to serial concentration of the antitumor drug (C310-6), each well was added with 100 μL of the new culture medium and cells were cultivated for 48 hrs.
d. 20 μL of MTT solution having the concentration of 5 mg/mL was added to each well for incubating the cells for 4 hrs.
e. […]
f. OD values were measured by a microplate reader, λ=490 nm
g. A cell viability curve was charted, 1050 value was calculated to be 14.152 μg/mL, which means that the compound has excellent human hepatoma cells Hep-g2 activity resistance.

[2] = system: human lung cancer cells A549; test: MTT assay on human lung cancer cells A549; type: cell-based; conditions: A549 section, 48 hrs, OD 490 nm, read-out: 1050 value (cell viability curve)
[3] = system: H22 liver cancer model; test: Antitumor experiment against H22 tumor bearing mice; type: in vivo; conditions: 10 days; for Net weight variation (g) / Tumor weight: x ± s
Source text: Antitumor Experiment of C310-6 Against H22 Tumor Bearing Mice
H22 tumor bearing mice were adopted to observe the effect of the anti-liver cancer of five classes of mixtures.
H22 tumor bearing mouse inoculated with the tumor for 8-13 days and in good condition was killed by dislocation. Body surface of the mouse was disinfected by alcohol. The tumors were separated from the mouse and placed in sterile petri dish containing normal saline in a sterile environment (super clean bench). The tumors were cut into small piece and transferred to a tissue homogenizer, the normal saline was added with a volume ratio of the tumor piece to the normal saline being 1:3, a resulting homogenate was put into a 50 mL sterile centrifuge tube. 0.2 mL of the homogenate was inoculated to right axilla of each C57BL/6 mouse by 1 mL syringe. The tumor cell suspension was prepared in the sterile environment (the super clean bench), and the serial operations from separation of the abdominal dropsy of the tumor to the tumor inoculation were accomplished in 60 min
(§1) Oral agent of C310-6: a certain weight of C310-6 sample was placed in a mortar, and Tween-80 having a volume of 2% of a certain volume of a solvent was added and fully ground. Thereafter, the normal saline was added and fully stirred to form a solution. Solutions having a concentration of the C310-6 sample of 24 mg/mL, 8 mg/mL, and 2.7 mg/mL were prepared.
(§2) Oral agent of CTX: CTX pill was removed from a film and a certain amount of the pill was placed in a mortar. A certain volume of normal saline was added, fully ground, and mixed to prepare a solution having a concentration of CTX to be 3.4 mg/mL.
(§3) 60 experimental mice were divided into 6 groups with each group having 10 mice, a half of the mice being female and another half of the mice being male. The groups are specifically as follows: 1) group administered with a low dose of C310-6 (27 mg/kg), 2) group administered with middle dose of C310-6 (80 mg/kg), 3) group administered with high dose of C310-6 (240 mg/kg), 4) group administered with CTX, 5) model group, and 6) blank control group. The above groups, except the model group and the blank control group, are administered with 0.3 mL of the drugs once a day after the injection of the tumor suspension, and the administration was lasted for 10 days. The model group and the blank control group are administered orally with equal volume of aqua solutions containing 2 v. % of Tween-80 for 10 days.
(§4) The weight and food intake of the mice were weighed and recorded every day, and a net weight of each mouse after tumor removal was calculated at the last time.
(§5) The separated tumor tissue was weighed, and the inhibition rate on the tumor growth was calculated according to the following equation: […]
Data of mice in each group were expressed by and were processed by SPSS software, each group was examined by one-way ANOVA.

[4] = system: Lewis lung cancer model; test: Anti-Lewis tumor experiment (Lewis lung cancer bearing mouse); type: in vivo; conditions: Lewis mice, 10 days; for Net weight variation (g) / Tumor weight: x ± s
Source text: The purpose of the experiment was adopting the Lewis tumor bearing mouse model to observe the antitumor effect of C310-6.
Tumor bearing mouse inoculated with the tumor for 8-13 days and in good condition was killed by dislocation. Body surface of the mouse was disinfected by alcohol. The tumors were separated from the mouse and placed in sterile petri dish containing normal saline in a sterile environment (super clean bench). The tumors were cut into small piece and transferred to a tissue homogenizer, the normal saline was added with a volume ratio of the tumor piece to the normal saline being 1:3, a resulting homogenate was put into a 50 mL sterile centrifuge tube. 0.2 mL of the homogenate was inoculated to right axilla of each KM mouse by 1 mL syringe. The tumor cell suspension was prepared in the sterile environment (the super clean bench), and the serial operations from the tumor separation to the tumor inoculation were accomplished in 60 min
as §1, §2
as §3, with “0.2” for “0.3”
as §4, §5
Data of mice in each group were expressed by corresponding data and were processed by SPSS software, each group was examined by one-way ANOVA.

[5] = system: human hepatoma cells Hep-g2; test: iCELLigence real-time cell-analyzer (RTCA) growth monitoring, Hep-g2; type: cell-based; conditions: 1.6-100 μg/mL, 48 hrs, FIG. 6
Procedure: 1. Eight-well plate (E-Plate L8) supplied by ACEA Bio (Hangzhou) Co. Ltd. was combined with an iCELLigence real-time cell-analyzer (RTCA). 150 μL of a complete F-12K medium was added to each well and the eight-well plate was placed in an incubator at a temperature of 37° C. and an atmosphere of 5% CO2, and the background data were regulated to 40-130. The compound C310-6 was fully dissolved by dimethyl sulfoxide to concentrations of 100 mg/mL, 50 mg/mL, 25 mg/mL, 12.5 mg/mL, 6.3 mg/mL, 3.1 mg/mL, and 1.6 mg/mL, and then diluted to by the complete F-12K medium obtain working solutions having concentrations of 10 mg/mL, 5 mg/mL, 2.5 mg/mL, 1.25 mg/mL, 0.63 mg/mL, 0.31 mg/mL, and 0.16 mg/mL. Well cultivated human hepatoma cells Hep-g2 were digested by trypsin and diluted into live cell suspensions with a concentration of 4×10^4/mL. Thereafter, 345 μL of the live cell suspension of C310-6 was inoculated to each well of an eight-well plate, and then 5 μL of the working solution was added to each well to enable final concentrations of the C310-6 compound to be 100 μg/mL, 50 μg/mL, 25 μg/mL, 12.5 μg/mL, 6.3 μg/mL, 3.1 μg/mL, and 1.6 μg/mL. An eighth hole was added with the complete F-12K medium containing 1 wt. % of dimethyl sulfoxide as a blank control group, and was displaced into the incubator at 37° C. and 5% CO2 for 48 hrs.

[6] = system: human lung cancer cells A549; test: iCELLigence real-time cell-analyzer (RTCA) growth monitoring, A549; type: cell-based; conditions: 1.6-100 μg/mL, 48 hrs, FIG. 7

## CC(C)[C@@H](C)/C=C/[C@H](C)[C@@H]1CC[C@@H]2C3=CC=C4C[C@H](O)CC[C@@]4(C)[C@@H]3CC[C@]21C [C310-6, (3α,9β,10α,13α,14β,17α,20S,22E)-ergosta-5,7,22-trien-3-ol]
[1]
  IC50: 14.2 µg/mL (≈ 35.7 µM)
[2]
  IC50: 14.2 µg/mL (≈ 35.7 µM)
[3]; 27 mg/kg oral once a day
  Liver transfer rate (%): 0%
  Survival rate (%): 100%
  Tumor inhibition rate (%): 23.4%
  Net weight variation (g): 6.92 ± 2.65∘∘ g
  Tumor weight: 0.42 ± 0.60 g
[3]; 80 mg/kg oral once a day
  Liver transfer rate (%): 0%
  Survival rate (%): 100%
  Net weight variation (g): 7.78 ± 3.72∘∘ g
  Tumor weight: 0.32 ± 0.43 g
[3]; 80 mg/kg oral once a day, 80 mg/kg
  Tumor inhibition rate (%): > 40% and 41.1%
[3]; 240 mg/kg oral once a day
  Liver transfer rate (%): 0%
  Survival rate (%): 100%
  Tumor weight: 0.19 ± 0.18 g
[3]; 240 mg/kg oral once a day, 240 mg/kg
  Tumor inhibition rate (%): > 40% and 64.4%
[3]; 240 mg/kg oral once a day, weight after tumor removal vs original
  Net weight variation (g): 5.70 ± 4.05*※∘∘ g
[4]; 27 mg/kg oral once a day
  Lung cancer transmission rate (%): 40%
  Survival rate (%): 100%
  Tumor inhibition rate (%): 15.76%
  Net weight variation (g): −0.36 ± 1.33**※※ g
  Tumor weight: 1.42 ± 0.94 g
[4]; 80 mg/kg oral once a day
  Lung cancer transmission rate (%): 50%
  Survival rate (%): 100%
  Tumor inhibition rate (%): 28.39%
  Net weight variation (g): −0.95 ± 1.30**※※ g
  Tumor weight: 1.21 ± 0.26 g
[4]; 240 mg/kg oral once a day
  Lung cancer transmission rate (%): 30%
  Survival rate (%): 100%
  Tumor inhibition rate (%): 44.59%
  Net weight variation (g): −0.61 ± 1.36**※※ g
  Tumor weight: 0.93 ± 0.45 g
[5]
  growth of human hepatoma cells Hep-g2 (real-time data): inhibited
[6]
  growth of human lung cancer cells A549 (real-time data): inhibited

## O=P1(N(CCCl)CCCl)NCCCO1 (centres unmarked) [CTX, cyclophosphamide, reference compound]
[3]; 20 mg/kg oral once a day
  Liver transfer rate (%): 0%
  Survival rate (%): 100%
  Tumor inhibition rate (%): 52.9%
  Net weight variation (g): 1.73 ± 2.73**※※ g
  Tumor weight: 0.25 ± 0.21 g
[4]; 20 mg/kg oral once a day
  Lung cancer transmission rate (%): 20%
  Survival rate (%): 100%
  Tumor inhibition rate (%): 46.29%
  Net weight variation (g): −0.94 ± 1.03**※※ g
  Tumor weight: 0.90 ± 0.39 g
